Measured values: patent US11613542B2, “Sulfonylureas and sulfonylthioureas as NLRP3 inhibitors” (Inflazome Limited, priority 2017, dated 2023)
Where a name gives a salt, the structure may show the parent alone. Read-outs that look alike come from different tables or passages of the source.

How the values were obtained:
[1] = Pharmacokinetic parameters in male Sprague Dawley rats (intravenous and oral administration); format: in vivo; settings: dose per compound (mg/kg); for bioavailability: plasma, rat, read-out: Bioavailability; for clearance / half-life / AUC / Vd / CL/F / Cmax / Tmax / Cl / T1/2 / Vdss: rat plasma; for Vd: read-out: Vdss; for Cmax: read-out: Cmax; for Tmax: read-out: Tmax
Description: Pharmacokinetic parameters were determined in male Sprague Dawley rats (Charles River, UK, 250-350 g; or Vital River Laboratory Animal Technology Co Ltd, Beijing, China, 7-9 weeks old). Animals were individually housed during the study and maintained under a 12 h light/dark cycle. Animals had free access to food and water except that some orally dosed animals were food deprived overnight prior to the study.
For intravenous administration, compounds were formulated as a solution in water or DMSO:PBS [10:90] in 2 mL/kg dosing volume and administered via tail vein. For oral administration, compounds were formulated as a solution in water or DMSO:water [10:90] in 5 mL/kg dosing volume and administered orally.
Serial blood samples (about 120-300 μL) were taken from each animal at each of 8 time-points post dose (0.083, 0.25, 0.5, 1, 2, 4, 8 and 24 h) or at each of 12 time-points post dose (0.03, 0.1, 0.17, 0.25, 0.5, 1, 2, 4, 6, 8,12 and 24 h) or pre-dose and at each of 9 time-points post dose (0.25, 0.5, 1, 2, 4, 6, 8, 12 and 24 h). Samples were held on ice for no longer than 30 minutes before centrifugation (10,000 rpm (8,385 g) for 3 minutes; or 5,696 rpm (3,000 g) for 15 minutes) for plasma generation. Plasma was frozen on dry ice prior to bioanalysis. PK parameters were generated from LC-MS/MS data using Dotmatics or Phoenix WinNonlin 6.3 software.

NLRP3 [2] = target: T1, NLRP3 (Homo sapiens, UniProt Q96P20); assay: THP-1 cells pyroptosis assay; format: cell-based; parameters: Seed THP-1 cells (25,000 cells/well) containing 1.0 μg/ml LPS; host or cells: THP-1 cells, LPS-primed, nigericin-stimulated; settings: THP-1 cells, 1.0 μg/ml LPS, compound 3 hrs, nigericin 5 μM 1 hr, resazurin readout; read-out: THP IC50
T1 sequence (Q96P20 whole entry): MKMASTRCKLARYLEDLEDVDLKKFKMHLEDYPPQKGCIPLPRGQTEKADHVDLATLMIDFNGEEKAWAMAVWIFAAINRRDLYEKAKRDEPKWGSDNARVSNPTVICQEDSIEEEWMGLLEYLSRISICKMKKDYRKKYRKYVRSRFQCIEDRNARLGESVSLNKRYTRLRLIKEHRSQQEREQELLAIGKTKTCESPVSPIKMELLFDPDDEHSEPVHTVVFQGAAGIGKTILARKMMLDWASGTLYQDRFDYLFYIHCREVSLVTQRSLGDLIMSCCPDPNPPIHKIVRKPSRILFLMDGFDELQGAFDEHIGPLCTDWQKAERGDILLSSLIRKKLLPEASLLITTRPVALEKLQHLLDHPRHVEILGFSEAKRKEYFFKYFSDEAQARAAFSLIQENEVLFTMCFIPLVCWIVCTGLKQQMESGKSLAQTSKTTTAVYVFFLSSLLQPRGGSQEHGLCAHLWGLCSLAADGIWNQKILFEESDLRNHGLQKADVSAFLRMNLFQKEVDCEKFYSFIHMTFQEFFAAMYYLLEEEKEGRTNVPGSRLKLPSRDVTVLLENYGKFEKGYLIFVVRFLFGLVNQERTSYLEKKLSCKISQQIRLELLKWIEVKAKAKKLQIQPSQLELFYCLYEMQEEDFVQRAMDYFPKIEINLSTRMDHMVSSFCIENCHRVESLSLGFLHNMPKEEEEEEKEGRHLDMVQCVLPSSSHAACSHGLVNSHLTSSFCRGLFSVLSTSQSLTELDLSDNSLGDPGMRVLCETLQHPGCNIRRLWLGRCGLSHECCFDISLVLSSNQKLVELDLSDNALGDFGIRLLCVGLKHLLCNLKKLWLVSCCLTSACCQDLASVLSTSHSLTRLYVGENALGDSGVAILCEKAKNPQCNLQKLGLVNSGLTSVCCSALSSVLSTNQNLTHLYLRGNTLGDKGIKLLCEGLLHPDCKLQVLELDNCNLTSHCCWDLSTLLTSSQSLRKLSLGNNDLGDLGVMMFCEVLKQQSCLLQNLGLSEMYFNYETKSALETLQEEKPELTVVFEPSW
Outline: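 THP-1 cells (25,000/well) in serum-free RPMI with 1.0 μg/ml LPS, treated with compound (8-point half-log dilution, 10 μM top, 0.1% DMSO), then nigericin 5 μM final. Viability read by resazurin (100 μM final, 1-2 h, 37° C) fluorescence Ex 560/Em 590 nm; IC50 from 4-parameter variable-slope fit.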

NLRP3 [3] = target: T1, NLRP3; assay: Human whole blood IL1β release assay; format: cell-based; parameters: Human whole blood in Li-heparin tubes was obtained from healthy donors; from tissue; host or cells: human whole blood from healthy donors, LPS-primed, nigericin-stimulated; settings: human whole blood, 1 μg/ml LPS, compound 3 hrs, nigericin 10 μM 1 hr, IL-1β AlphaLisa; read-out: HWB IC50
Description: Human Whole Blood IL1β Release Assay
For systemic delivery, the ability to inhibit NLRP3 when the compounds are present within the bloodstream is of great importance. For this reason, the NLRP3 inhibitory activity of a number of compounds in human whole blood was investigated in accordance with the following protocol.
Human whole blood in Li-heparin tubes was obtained from healthy donors from a volunteer donor panel. • 1. Plate out 80 μl of whole blood containing 1 μg/ml of LPS in 96-well, clear bottom cell culture plate (Corning #3585) • 2. Add 10 μl compound (8 points half-log dilution with 10 μM top dose) or vehicle (DMSO 0.1% FAC) to the appropriate wells • 3. Incubate for 3 hrs at 37° C., 5% CO2 • 4. Add 10 μl Nigericin (Sigma #N7143) (10 μM FAC) to all wells • 5. Incubate for 1 hr at 37° C., 5% CO2 • 6. At the end of the incubation period, spin plates at 300 xg for 5 mins to pellet cells and remove 20 μl of supernatant and add to 96-well v-bottom plates for IL-1β analysis (note: these plates containing the supernatants can be stored at −80° C. to be analysed at a later date) • 7. IL-1β was measured according to the manufacturer protocol (Perkin Elmer-AlphaLisa IL-1 Kit AL220F-5000) • 8. IC50 data is fitted to a non-linear regression equation (log inhibitor vs response-variable slope 4-parameters)

[4] = male, Sprague Dawley, oral administration
[5] = male, Sprague Dawley, intravenous administration
[6] = male, Sprague Dawley, intravenous administration, read-out: AUC
[7] = male, Sprague Dawley, oral administration, read-out: AUC

| IC50 (NLRP3 [2]) | IC50 (NLRP3 [3]) | SMILES | other results |
| --- | --- | --- | --- |
| < 40 nM | < 400 nM | CN(C)CC(C)(C)n1ccc(S(=O)(=O)NC(=O)Nc2c(-c3ccnc(OC4CC4)c3)ccc3c2CCC3)n1 [Example 194, N-((5-(2-Cyclopropoxypyridin-4-yl)-2,3-dihydro-1H-inden-4-yl)carbamoyl)-1-(1-(dimethylamino)-2-methylpropan-2-yl)-1H-pyrazole-3-sulfonamide, sodium salt] |  |
| < 40 nM | < 400 nM | COc1cc(-c2ccc3c(c2NC(=O)NS(=O)(=O)c2ccn(C(C)(C)C#N)n2)CCC3)ccn1 [Example 195, 1-(2-Cyanopropan-2-yl)-N-((5-(2-methoxypyridin-4-yl)-2,3-dihydro-1H-inden-4-yl)carbamoyl)-1H-pyrazole-3-sulfonamide, sodium salt] |  |
| < 40 nM | < 400 nM | CN(C)CC(C)(C)n1ccc(S(=O)(=O)NC(=O)Nc2c(-c3ccnc(C#N)c3)ccc3c2CCC3)n1 [Example 196, N-((5-(2-Cyanopyridin-4-yl)-2,3-dihydro-1H-inden-4-yl)carbamoyl)-1-(1-(dimethylamino)-2-methylpropan-2-yl)-1H-pyrazole-3-sulfonamide] |  |
| < 640 nM | < 400 nM | CN(C)CC(C)(C)n1ccc(S(=O)(=O)NC(=O)Nc2c(-c3cccnc3)ccc3c2CCC3)n1 [Example 197, 1-(1-(Dimethylamino)-2-methylpropan-2-yl)-N-((5-(pyridin-3-yl)-2,3-dihydro-1H-inden-4-yl)carbamoyl)-1H-pyrazole-3-sulfonamide] |  |
| < 640 nM | < 800 nM | C[C@H](CN(C)C)n1ccc(S(=O)(=O)NC(=O)Nc2c3c(cc4c2CCC4)CCC3)n1 [Example 198, (R)-1-(1-(Dimethylamino)propan-2-yl)-N-((1,2,3,5,6,7-hexahydro-s-indacen-4-yl)carbamoyl)-1H-pyrazole-3-sulfonamide] |  |
| < 640 nM | < 1600 nM | CN(C)CCn1ncc(S(=O)(=O)NC(=O)Nc2c3c(cc4c2CCC4)CCC3)n1 [Example 199, 2-(2-(Dimethylamino)ethyl)-N-((1,2,3,5,6,7-hexahydro-s-indacen-4-yl)carbamoyl)-2H-1,2,3-triazole-4-sulfonamide] |  |
| < 160 nM | < 400 nM | CN(C)CC1(n2ccc(S(=O)(=O)NC(=O)Nc3c4c(cc5c3CCC5)CCC4)n2)CC1 [Example 202, 1-(1-((Dimethylamino)methyl)cyclopropyl)-N-((1,2,3,5,6,7-hexahydro-s-indacen-4-yl)carbamoyl)-1H-pyrazole-3-sulfonamide] |  |
| < 160 nM | < 800 nM | CNCC(C)(C)n1ccc(S(=O)(=O)NC(=O)Nc2c3c(cc4c2CCC4)CCC3)n1 [Example 204, N-((1,2,3,5,6,7-Hexahydro-s-indacen-4-yl)carbamoyl)-1-(2-methyl-1-(methylamino)propan-2-yl)-1H-pyrazole-3-sulfonamide, sodium salt] |  |
| < 40 nM | < 1600 nM | CN1CCC(n2ccc(S(=O)(=O)NC(=O)Nc3c4c(cc5c3CCC5)CCC4)n2)C1 (stereo not shown) [Example 205, N-((1,2,3,5,6,7-Hexahydro-s-indacen-4-yl)carbamoyl)-1-(1-methylpyrrolidin-3-yl)-1H-pyrazole-3-sulfonamide, sodium salt] |  |

The remaining lines, values behind:

| SMILES | IC50 (NLRP3 [2]) | IC50 (NLRP3 [3]) | other results |
| --- | --- | --- | --- |
| CN(C)CCn1ccc(S(=O)(=O)NC(=O)Nc2c3c(cc4c2CCC4)CCC3)n1 [Example 7, 1-(2-(Dimethylamino)ethyl)-N-((1,2,3,5,6,7-hexahydro-s-indacen-4-yl)carbamoyl)-1H-pyrazole-3-sulfonamide] | < 640 nM | < 400 nM | bioavailability [1, 4]: 52.7%; clearance [1, 5]: 2.6 mL/min/kg; half-life [1, 5]: 3.7 h; AUC [1, 6]: 6420 ng·h/mL; Vd [1, 5]: 0.38 L/kg; CL/F [1, 4]: 5 mL/min/kg; half-life [1, 4]: 3 h; AUC [1, 7]: 15200 ng·h/mL; Cmax [1, 4]: 3250 ng/mL; Tmax [1, 4]: 1 h |
| CN(C)CC(C)(C)n1ccc(S(=O)(=O)NC(=O)Nc2c3c(cc4c2CCC4)CCC3)n1 [Example 17, 1-(1-(Dimethylamino)-2-methylpropan-2-yl)-N-((1,2,3,5,6,7-hexahydro-s-indacen-4-yl)carbamoyl)-1H-pyrazole-3-sulfonamide] | < 160 nM | < 1600 nM | bioavailability [1, 4]: 18.5%; clearance [1, 5]: 1.1 mL/min/kg; half-life [1, 5]: 2.5 h; AUC [1, 6]: 15800 ng·h/mL; Vd [1, 5]: 0.18 L/kg; CL/F [1, 4]: 6.1 mL/min/kg; half-life [1, 4]: 2.3 h; AUC [1, 7]: 8760 ng·h/mL; Cmax [1, 4]: 2810 ng/mL; Tmax [1, 4]: 0.67 h |
| CN1CC[C@H]1Cn1ccc(S(=O)(=O)NC(=O)Nc2c3c(cc4c2CCC4)CCC3)n1 [Example 20, (S)—N-((1,2,3,5,6,7-Hexahydro-s-indacen-4-yl)carbamoyl)-1-((1-methylazetidin-2-yl)methyl)-1H-pyrazole-3-sulfonamide] | < 160 nM | < 400 nM | clearance [1, 5]: 2.4 mL/min/kg; half-life [1, 5]: 2.9 h; AUC [1, 6]: 11300 ng·h/mL; Vd [1, 5]: 0.32 L/kg |
| CC(C)n1nc(S(=O)(=O)NC(=O)Nc2c3c(cc4c2CCC4)CCC3)cc1C(=O)N1CCC1 [Example 131, 5-(Azetidine-1-carbonyl)-N-((1,2,3,5,6,7-hexahydro-s-indacen-4-yl)carbamoyl)-1-isopropyl-1H-pyrazole-3-sulfonamide, partial ammonium salt] | < 160 nM | < 1600 nM | AUC ([1]; intravenous administration): 302.7 ng·h/mL; Cl ([1]; intravenous administration): 55.3 mL/min/kg; T1/2 ([1]; intravenous administration): 1.6 h; Vdss ([1]; intravenous administration): 1.66 L/kg |
| CC(C)c1cc(F)cc(C(C)C)c1NC(=O)NS(=O)(=O)c1cc(C(=O)N2CCC2)n(C)n1 [Example 145, 5-(azetidine-1-carbonyl)-N-((4-fluoro-2,6-diisopropylphenyl)carbamoyl)-1-methyl-1H-pyrazole-3-sulfonamide, sodium salt] | < 160 nM | < 400 nM | AUC ([1]; intravenous administration): 415.0 ng·h/mL; Cl ([1]; intravenous administration): 40.3 mL/min/kg; T1/2 ([1]; intravenous administration): 6.4 h; Vdss ([1]; intravenous administration): 7.96 L/kg |
| CN(C)CC(C)(C)n1ccc(S(=O)(=O)NC(=O)Nc2c(-c3ccnc(OC4CC4)c3)ccc3c2CCO3)n1 [Example 192, N-((5-(2-Cyclopropoxypyridin-4-yl)-2,3-dihydrobenzofuran-4-yl)carbamoyl)-1-(1-(dimethylamino)-2-methylpropan-2-yl)-1H-pyrazole-3-sulfonamide, sodium salt] | < 160 nM | < 400 nM |  |
| COc1cc(-c2ccc3c(c2NC(=O)NS(=O)(=O)c2ccn(C4CCN(C)C4)n2)CCC3)ccn1 (stereo not shown) [Example 193, N-((5-(2-Methoxypyridin-4-yl)-2,3-dihydro-1H-inden-4-yl)carbamoyl)-1-(1-methylpyrrolidin-3-yl)-1H-pyrazole-3-sulfonamide, sodium salt] | < 40 nM | < 400 nM |  |
